Marks after values point to notes of the source that are not given here.
Assays:
Format in all cases: cell-based
[1] = test system: living human skin explants; assay: Biochemical assay of MDA (lipid peroxidation) on living human skin explants exposed to pollutants
Protocol: Product A (Table 11) was diluted in water to obtain the following products at concentrations: product P1=A at 4%, product P2=A at 2% and product P3=A at 1%.
59 human skin explants of an average diameter of 14 mm (±1 mm) were prepared on an abdoplasty coming from a person. The explants were kept in survival in BEM culture medium at 37° C. in a humid, 5%-CO2 atmosphere.
The tested products were topically applied on the basis of 2 μl per cm^2 and spread using a small spatula twice a day (morning and evening) on day 0, 1, 2, 3 and 4.
On D4, the explants of the batches ML and PML were placed on the 3D grid with 900 μl of HBSS and placed into the PolluBox® system.
3 mL of the solution <<ML>> (supplemented with 150 μl/ml of NaCl 0.9%) were exposed by vaporization for 1 hour and half, as shown in the figure below.
The MDA assay was realized with an enhanced method of the TBARs (Thiobarbituric Acid Reactive Species) assay. The MDA was assayed in HBSS medium by addition of TBARs solution (thiobarbituric acid, hydrochloric acid and tricholoroacetic acid) and placed in a water bath (80° C. for 15 minutes). A lot of substances (like glucose) which are not related with lipoperoxidation, react with thiobarbituric acid (ThioBarbituric Acid Reagents=TBARS), so to enhance the specificity of the assay, the MDA was extracted by a liquid/liquid extraction with butanol. The MDA in butanol was measured in spectrofluorimetry (excitation: 515 nm, emission: 550 nm) using a Tecan Infinite M200 Pro microplate reader. Using this assay, MDA contained in the culture medium BEMc on […] was measured for the 4 explants per batch. The MDA concentration was expressed in pmol of MDA/ml of the medium. Concerned batches: all batches on day 5, 4 explants per batch.
The average of the blank batch TJ5 was calculated (154.0 nmol/L). Then, for each explant of MLJ5, this average value was subtracted from […]. That corresponds to calculating the delta (increase) of MDA induced by ML for each explant compared to the average of the batch without ML, it is ΔML.
These average deltas were then compared to the average delta of MDA induction without treatment (ΔML).

[2] = test system: human living skin explant; assay: TUNEL assay (UV-induced DNA damage) on human living skin explants
Protocol: (§1) human skin explants of an average diameter of 12 mm (±1 mm) were prepared on an abdoplasty coming from a person). The explants were kept in survival in BEM culture medium at 37° C. in a humid, 5%-CO2 atmosphere.
(§2) On day 0 (D0), day 1, day 2 and day 3 (3 hours before irradiation), the tested products were applied topically on surface of skin explants at the rate of 2 mg/cm^2, twice a day for D1 and D2 and once on DO and D3. […] The medium was half renewed (1 ml per well) on day 2.
(§3) On D3, the culture media of all the batches was replaced by HBSS solution (Hank's Balanced Saline Solution; 1 ml per explant). The batches “UV” were irradiated by UVA+ UVB using a UV simulator Vibert Lourmat RMX 3W with a dose of 18 J/cm2 of UVA (4 MED, minimal erythemal dose) and 0.3 J/cm2 of UVB (2 MED). The unirradiated batches were kept in HBSS in the dark. At the end of the irradiation the explants were put back in 2 mL of BEM medium.
(§4) After fixation for 24 hours in buffered formalin, the samples were dehydrated and impregnated in paraffin using a Leica PEARL dehydration automat. The samples were embedded using a Leica EG 1160 embedding station. 5-μm-thick sections were made using a Leica RM 2125 Minot-type microtome, and the sections were mounted on Superfrost® histological glass slides. The frozen samples were cut into 7-μm-thick sections using a Leica CM 3050 cryostat. Sections were then mounted on Superfrost® plus silanized glass slides. The microscopical observations were realized using a Leica DMLB or Olympus BX43 microscope. Pictures were digitized with a numeric DP72 Olympus camera with CellD storing software.
DNA oxidization is a type of damage that can be promoted by reactive oxygen species (ROS), generated by UV exposure. […] The staining was assessed by microscopical observation. Batches analyzed were T, TUV, P1UV, P2UV, P3UV at day 4 also referred to as TJ4, TUVJ4, P1UVJ4, P2UVJ4, P3UVJ4 (T=Control batch non treated non irradiated; TJ4=T at Day 4 (D4); TUV: control batch non treated UV irradiated; TUVJ4=[…] at Day 4; P1J4: product A 4% non irradiated at D4; P2J4: product A 2% non irradiated at D4; P3J4: product A 1% non irradiated at D4; P1UV: product A 4% UV irradiated; P1UVJ4: product A 4% UV irradiated at D4 P2UV: product A 2% UV irradiated; P2UVJ4: product A 2% UV irradiated at D4; P3UV: product A 1% UV irradiated; P3UVJ4: product A 1% UV irradiated at D4

[3] = test system: human living skin explant; assay: Immunostaining of carbonylated proteins (FTZ) on human living skin explants; conditions: UV irradiated
Protocol: as §1, §2, §3, §4
Protein carbonylation is a type of protein oxidation that can be promoted by reactive oxygen species (ROS), generated by UV exposure. FTZ marker assay was conducted by immunostaining in the living epidermis of human skin explant as follows: Carbonylated proteins were stained on frozen sections with the anti-carbonylated proteins probe (fluorescein-5-thiosemicarbazid-FTZ) (Lifetechnologies, Ref. F-121) diluted at 0.5 μM in MES-Na+ and incubated for 30 minutes in the dark and at room temperature. The staining was observed by epifluorescence and assessed by microscopical observations. Batches analyzed were T, TUV, P1UV, P2UV, P3UV at day 4 also referred to as TJ4, TUVJ4, P1UVJ4, P2UVJ4, P3UVJ4

[4] = test system: human living skin explant; assay: Cell viability of human living skin explants (UV study); conditions: day 4
Protocol: as §1, §2, §3, §4

[5] = test system: Reconstructed Human Epidermis (RHE); assay: Caffein diffusion test on Reconstituted Human Epidermis (RHE); conditions: for caffein diffusion through RHE: systemic treatment
Protocol: By measuring the amount of […] […] The epidermis used was a Reconstructed Human Epidermis, called “RHE”, 0-day-old, batch no 01015-444, placed in culture conditions 37° C., 5% CO2. The assay medium was the Bioalternatives maintenance medium. RHE at Day 0 (when placed at the air/liquid interface) were placed in assay medium containing or not (control) the compounds, the combination or the reference (vitamin C at 200 μg/ml). This is referred to as a systemic application, to be differentiated from a topical application. RHE were then incubated for 7 days with treatment renewal at Day 3 and Day 5. All experimental conditions were performed in n=3. At the end of incubation (Day 7), radioactive […] ([^14[…] applied on the surface of each epidermis. The radioactivity contained in subnatants was measured by liquid scintillation after 30 minutes, 1, 2, 3, 4, 5, 6, 7 and 8 hours of incubation. The barrier function is calculated according to the below formula:

In the case of `O=C(O)[C@@H]1CCCN1` [Combination P5, L-Proline], the “MDA, variation ΔPML vs ΔML” value ([1]; MDA induction by pollutants, day 5) is reported as −48%*, the “reduction of the increase of MDA” value ([1]; after pollutant exposure (ΔPML vs ΔML)) is reported as 48% and the “MDA, variation PML vs ML” value ([1]; after pollutants exposure, day 5) is reported as −14% #. For the same compound, the “activity against UV-induced DNA damage” value ([2]; UV irradiated) was “totally inhibits the increase of DNA damage”, the “DNA damage (TUNEL), variation vs TJ4” value ([2]; non irradiated, day 4) was “↔ (indicates no variation)” and the “effect on UV-induced carbonylated proteins” value [3] was “slightly inhibits the formation of carbonylated proteins”. The “Cell Viability, variation vs TUVJ4” value ([4]; UV irradiated) was “↔ (indicates no variation)” and the “Cell Viability, variation vs TJ4” value ([4]; non irradiated) was “↔ (indicates no variation)”.

For `C[N+](C)(C)CC(=O)O` [betaine], the “Barrier function % Control” value ([5]; 0.5 hrs, 10 mg/ml) was 97%, the “Mean [14C]-caffein (cpm)” value ([5]; 0.5 hrs, 10 mg/ml) was 20507 cpm and the “[14C]-caffein % Control” value ([5]; 0.5 hrs, 10 mg/ml) was 104%. The “Barrier function % Control” value ([5]; 1 hrs, 10 mg/ml) was 91%, the “Mean [14C]-caffein (cpm)” value ([5]; 1 hrs, 10 mg/ml) was 50356 cpm and the “[14C]-caffein % Control” value ([5]; 1 hrs, 10 mg/ml) was 110%. The “Barrier function % Control” value ([5]; 2 hrs, 10 mg/ml) was 85%, the “Mean [14C]-caffein (cpm)” value ([5]; 2 hrs, 10 mg/ml) was 117502 cpm and the “[14C]-caffein % Control” value ([5]; 2 hrs, 10 mg/ml) was 117%. The “Barrier function % Control” value ([5]; 3 hrs, 10 mg/ml) was 87%, the “Mean [14C]-caffein (cpm)” value ([5]; 3 hrs, 10 mg/ml) was 156579 cpm and the “[14C]-caffein % Control” value ([5]; 3 hrs, 10 mg/ml) was 114%. For the same compound, the “Barrier function % Control” value ([5]; 4 hrs, 10 mg/ml) was 91%, the “Mean [14C]-caffein (cpm)” value ([5]; 4 hrs, 10 mg/ml) was 173278 cpm and the “[14C]-caffein % Control” value ([5]; 4 hrs, 10 mg/ml) was 110%. The “Barrier function % Control” value ([5]; 5 hrs, 10 mg/ml) was 92%, the “Mean [14C]-caffein (cpm)” value ([5]; 5 hrs, 10 mg/ml) was 186588 cpm and the “[14C]-caffein % Control” value ([5]; 5 hrs, 10 mg/ml) was 108%. The “Barrier function % Control” value ([5]; 6 hrs, 10 mg/ml) was 93%, the “Mean [14C]-caffein (cpm)” value ([5]; 6 hrs, 10 mg/ml) was 193499 cpm and the “[14C]-caffein % Control” value ([5]; 6 hrs, 10 mg/ml) was 107%. For the same compound, the “Barrier function % Control” value ([5]; 7 hrs, 10 mg/ml) was 96%, the “Mean [14C]-caffein (cpm)” value ([5]; 7 hrs, 10 mg/ml) was 196233 cpm and the “[14C]-caffein % Control” value ([5]; 7 hrs, 10 mg/ml) was 104%. The “Barrier function % Control” value ([5]; 8 hrs, 10 mg/ml) was 99%, the “Mean [14C]-caffein (cpm)” value ([5]; 8 hrs, 10 mg/ml) was 195439 cpm and the “[14C]-caffein % Control” value ([5]; 8 hrs, 10 mg/ml) was 101%. The “caffein diffusion through RHE” value ([5]; 3 mg/ml) was “induced a decrease of caffein diffusion through the RHE only after 30 minutes” and the “caffein diffusion through RHE” value ([5]; 10 mg/ml) was “No inhibitory effect”.

With `O=C1O[C@H]([C@@H](O)CO)C(O)=C1O` [vitamin C] the “caffein diffusion through RHE” value ([5]; 200 μg/ml) was “decreased significantly this diffusion”.
